# Where a name gives a salt, the structure may show the parent alone.
# Legend:
# Type in all cases: in vivo, human
# [1] = tested on: infected root canal and periapical region; assay: Topical treatment of the infected root canal and the periapical region (patient cases)
# Procedure: In the clinical use of the compounds of formula (I) or formula (II), the pulp residues are removed first. The preparation of the canals is carried out with minimum discomfort for the patient. The canals are then flushed with hydrogen peroxide, Other methods of disinfection can be omitted. The compounds of formula (I) or formula (II), in a liquid form of administration, are then introduced into the toot canal under pressure using a cannula. The compounds of formula (I) or (II) are then injected in dissolved form or in a gelatinous form of administration. The root canal is subsequently occluded in the crown region, first with a cotton wool plug and then with zinc phosphate cement to seal the margins. If the canals are not gangrenous, the antibiotics remain in the canals for 3 days. […] The compounds of formula (I) or formula (II) can be used in concentrations of 0.005 mg/ml to 200 mg/ml.
# In this application technique, which is known from intraligamental anaesthesia, the tooth is completely flooded with the antibacterial solution of the compounds of formula (I) or formula (II) in the entire root region.
# periodontal diseases = assay: Topical treatment of periodontal diseases (patient cases)
# From the text: To do this, threads or so-called chips impregnated with solutions or gelatinous preparations of the compounds of formula (I) or formula (II) are inserted in the gingival pocket. A possible alternative is to use medicament carriers in the form of trays covering the teeth and gingiva. Before they are applied, the gelatinous applications of the compounds of formula (I) or formula (II) are instilled into the gingival pockets. In addition, the gel containing the compounds of formula (I) or formula (II) can also be placed in the medicament carrier. This use of medicament carriers is advantageous because the treatment time can be reduced by the rapid onset of action to about 15 to 30 minutes, so the treatment can be carried out directly in the surgery. The compounds of formula (I) or formula (II) can be used in concentrations of 0.005 mg/ml to 200 mg/ml. Preferred concentrations are those ranging from 0.5 mg/ml to 200 mg/ml and particularly preferred concentrations are those ranging from 10 to 150 mg/ml. Periodontal diseases can also be treated by administering the compounds of formula (I) or formula (II) by intraligamental injection, it being possible to use concentrations ranging from 0.005 mg/ml to 200 mg/ml, preferably from 0.5 mg/ml to 200 mg/ml. For the antibiotics commonly used nowadays, such as tetracyclines, an intraligamental injection is not reasonable since these compounds with a predominantly bacteriostatic action are quickly washed out due to the rapid fluid exchange in the periodontal interstice, and cannot develop their action. Tetra-cyclines can therefore only develop their effects via depot formulations. By contrast, the compounds of formula (I) or formula (II) have a very rapid and also bactericidal action, so their residence time in the periodontal interstice is sufficient to destroy the microbes.
# [2] = tested on: wounds, bacterial skin infections, diabetic foot syndrome; assay: Wound care: topical/local application (patient cases); conditions: for wound check-up, ulcer c) / wound check-up, ulcer a) / wound check-up, ulcer b): Patient D 3; for wound check-up: Patient D 4
# From the text: Postoperative wound infections can generally occur in cases of inadequate infection prophylaxis following surgical interventions. Posttraumatic wound infections can arise due to cuts, stings, bruises, bites or gunshot wounds. Local perioperative prophylaxis can be carried out in the case of aseptic operations with a slight risk of infection. It is also possible to use local perioperative prophylaxis in addition to systemic perioperative prophylaxis, for example in the case of infections with an increased risk of infection, such as implantations, heart operations, transplantations, neurosurgical operations, operations in a highly contaminated area such as the oral cavity, oesophagus, rectum or colon, hysterectomy, bile duct operations, operations on patients with lowered resistance, or amputations. The local treatment of first, second or third degree burns can be administered prophylactically or after infection. […] Examples of hand infections are panaritium cutaueum, panaritium subcutaneum, panaritium ossale, panaritium articulate or tendovaginitis purulenta. In postoperative sepsis the infected wounds can be rendered substantially or completely free of microbes by the topical application of antibacterial agents. Gangrenes can be handled by local treatment with antibiotics in addition to therapy with parenteral antibiotics. Examples of acute bacterial skin infections are pyoderma, erysipelas, furuncles, carbuncles, phlegmons, abscesses, ulcus cruris, diabetic foot, infected decubital ulcers, blood blisters, erysipeloids or erytlrasma. Examples of chronic bacterial skin infections are lupus vulgaris, swimming-pool granuloma, Buruli ulcers or actinomycosis. Secondary bacterial infections occur for example in virus infections such as herpes simplex, herpes zoster or chicken-pox. Secondary bacterial infections of dermatoses occur for example in eczema, the exudation stage of neurodermatitis, vesicular dermatoses or contact dermatitis. Milder and moderate forms of acne and rosacea can also be treated locally.
# [3] = gel (1%) weekly, after 2nd week
compound,measurement,setting,value
"COc1c(N2C[C@@H]3CCCN[C@@H]3C2)c(F)cc2c(=O)c(C(=O)O)cn(C3CC3)c12 [moxifloxacin hydrochloride, 1-cyclopropyl-6-fluoro-1,4-dihydro-8-methoxy-7-[(4aS,7aS)-octahydro-6H-pyrrolo[3,4-b]pyridin-6-yl]-4-oxo-3-quinolinecarboxylic acid]",clinical finding at check-up,"[1]; Patient A 3.11, tooth 34 apical periodontitis, fistula, root canal insert gel 100 mg/ml, check-up after 10 days",patient symptom-free
same,clinical finding at check-up,"[1]; Patient A 3.12, tooth 44 fistulation, gangrenous, solution 50 mg/ml by paper point + intraligamental injection 50 mg/ml, check-up after 8 days",patient symptom-free
same,clinical finding at check-up,"[1]; Patient A 3.15, tooth 31 apical periodontitis due to gangrene, solution 50 mg/ml + gel 50 mg/ml + intraligamental injection 50 mg/ml, check-up after 9 days","patient symptom-free, canal odourless"
same,clinical finding at check-up,"[1]; Patient A 3.21, repetition of flushing and insert, check-up after 10 days",patient symptom-free
same,clinical finding at check-up,"[1]; Patient A 3.21, tooth 22 fistula, gangrenous, flushing solution 50 mg/ml + gel 50 mg/ml + intraligamental injection 50 mg/ml, check-up after 8 days","patient still not fully symptom-free, canal still had very slight odor"
same,clinical finding at check-up,"[1]; Patient A 3.3, tooth 11 apical periodontitis due to gangrene, solution 50 mg/ml + gel 50 mg/ml + intraligamental injection 50 mg/ml, check-up after 3 days","patient symptom-free, canal odourless"
same,clinical finding at check-up,"[1]; Patient A 3.4, tooth 11 apical periodontitis, not gangrenous, root canal insert gel 50 mg/ml, check-up after 3 days",patient symptom-free
same,clinical finding at check-up,"[1]; Patient A 3.5, tooth 35 apical periodontitis due to gangrene, solution 50 mg/ml + gel 50 mg/ml + intraligamental injection 50 mg/ml, check-up after 7 days","no gangrenous odour, no bite discomfort"
same,clinical finding at check-up,"[1]; Patient A 3.6, tooth 36 apical periodontitis due to gangrene, gel 50 mg/ml + intraligamental injection 50 mg/ml, check-up after 8 days","no gangrenous odour, patient symptom-free"
same,clinical finding at check-up,"[1]; Patient A 3.7, tooth 14 apical periodontitis due to gangrene, gel 100 mg/ml + intraligamental injection 50 mg/ml, check-up after 7 days",patient symptom-free
same,clinical finding at check-up,"[1]; Patient A 3.8, tooth 34 apical periodontitis due to gangrene, gel 50 mg/ml + intraligamental injection 50 mg/ml, check-up after 13 weeks","patient symptom-free, canal odour-free"
same,clinical finding at check-up,"[1]; Patient A 3.9, tooth 46 apical periodontitis, not gangrenous, gel 100 mg/ml + intraligamental injection 50 mg/ml, check-up after 7 days",patient symptom-free
same,clinical finding at check-up,"periodontal diseases; Patient B 1, teeth 26 and 27 marginal periodontitis, thread insert gel 50 mgn/ml, check-up after 3 days","patient symptom-free, gingival regions and pockets inflammation-free"
same,clinical finding at check-up,"periodontal diseases; Patient B 2, teeth 14 to 18 severe marginal periodontitis, thread insert gel 50 mg/ml, check-up after 4 days","patient symptom-free, gingival regions and pockets inflammation-free"
same,clinical finding at check-up,"periodontal diseases; Patient B 3, teeth 24 to 28 marginal periodontitis, thread insert 50 mg/ml, check-up after 5 days","patient symptom-free, gingival regions and pockets inflammation-free"
same,clinical finding at check-up,"periodontal diseases; Patient B 4, marginal periodontitis entire upper and lower jaw, medicinal splint gel 0.25 mg/ml 10 minutes/day for 4 days, check-up after 3 days","patient symptom-free, no more inflammatory phenomena present"
same,clinical finding at check-up,"periodontal diseases; Patient B 5, tooth 37 marginal periodontitis, thread insert gel 50 mg/ml, check-up after 8 days","patient symptom-free, gingival regions and pockets inflammation-free"
same,clinical finding at check-up,"periodontal diseases; Patient B 6, teeth 25-28 severe marginal periodontitis, thread insert gel 50 mg/ml + intraligamental injection 50 mg/ml, check-up after 10 days","patient symptom-free, gingival regions and pockets inflammation-free"
same,wound outcome,"[2]; Patient D 1, combustio escharotica on left forearm, gel (1%), after one week",Regeneration of skin epithelium with complete wound closure
same,"wound check-up, ulcer c)","[2]; D IV/D V, gel (1%) weekly, after 2nd week",ulcer C IV/D V healed
same,"wound check-up, ulcer a)","[2]; deep 2×1.5 cm greasy ulcer under right big toe, dressings with gel (1%) at weekly intervals, after 1st week","ulcer D I, 1×0.5 cm, clean"
same,"wound check-up, ulcer a)",[2]; [3],"ulcer D I pinhead-size, clean"
same,"wound check-up, ulcer a)","[2]; gel (1%) weekly, after 3rd week",ulcer D I unchanged
same,"wound check-up, ulcer a)","[2]; gel (1%) weekly, after 4th week",ulcer D I healed
same,"wound check-up, ulcer c)","[2]; large fissure D IV/D V, dressings with gel (1%) at weekly intervals, after 1st week",ulcer D IV/D V encrusted
same,"wound check-up, ulcer b)","[2]; large ulcer D III, dressings with gel (1%) at weekly intervals, after 1st week",ulcer D III clean
same,"wound check-up, ulcer b)","[2]; ulcer D III, gel (1%) weekly, after 2nd week","ulcer D III, clean granular tissue"
same,"wound check-up, ulcer b)","[2]; ulcer D III, gel (1%) weekly, after 3rd week",ulcer D III pinhead-size
same,"wound check-up, ulcer b)","[2]; ulcer D III, gel (1%) weekly, after 4th week",ulcer D III healed
same,wound check-up,"[2]; diabetic foot syndrome, 1×1 cm greasy ulcer, dressings with gel (1%) at weekly intervals, after 1st week","ulcer 0.2×0.4 cm, clean"
same,wound check-up,[2]; [3],ulcer healed
same,wound outcome,"[2]; Patient D 5, diabetic gangrene on left big toe, four applications of gel (1%) at weekly intervals","Regeneration of skin epithelium with complete wound closure, revascularization"
same,clinical outcome,"[2]; Patient D 7, phlegmons on palm of left hand, incision, local antibiosis with gel (1%), repeated after 2 days",Patient symptom-free
same,clinical outcome,"[2]; Patient D 9, carbuncle on back of neck, excision, open wound treatment with impregnated compress",Patient symptom-free
